From US10329249B1, “Sulindac derivatives” (KING SAUD UNIVERSITY, priority 2018, dated 2019)

Assays:
malondialdehyde (MDA) = assay: Determination of malondialdehyde in stomach tissue; assay type: in vivo, rats; conditions: Sulindac 100, Compound 8 150, mean ±SEM
Protocol: In a study for the determination of malondialdehyde, non-protein sulfhydryls, and total protein, stomach tissues were removed from rats, and each tissue was homogenized in 0.15M KCl to give a 10% w/v homogenate. Aliquots of homogenate (1 mL) were incubated at 37° C. for three hours in a metabolic shaker. Then 1 mL of 10% aqueous trichloroacetic acid was added to the homogenate and mixed. This suspension was then centrifuged at 4000 rpm for 10 min. […] The mixture was cooled and diluted with 1 mL of distilled water. The absorbance of the solution was then read at 535 nm. The content of malondialdehyde (MDA) (nmol/g) was then calculated by reference to a standard curve of MDA solution.

[1] = LD50 by the Karber method; assay type: in vivo; conditions: 24 hours observation
Protocol: In a study of the LD50 of sulindac derivative Compound 8, the LD50 (lethal dose 50%) was calculated for compound 8 by the Karber method. For determination of LD50, an observation was made for 24 hours, and symptoms of toxicity and rate of mortality were noted. Expired animals were counted at the end of the study period for the calculation of LD50 according to: LD50=LD100−Σ(a×b)/n, where n is the total number of animals in a group, a is the difference between two successive doses of administered extract/substance, b is the average number of dead animals in two successive doses, and LD100 is the lethal dose causing 100% death of all test animals.

[2] = system: gastric lesions induced by indomethacin; assay: Gastric lesions induced by indomethacin; assay type: in vivo, rats; conditions: for Ulcer Index: rats given indomethacin 30 mg/kg oral, Sulindac 100 mg/kg, Compound 8 150 mg/kg half an hour before, mean ±SEM
Protocol: (§1) All animal experiments used healthy male albino rats (200 g-220 g) and mice. The animals were kept in standard plastic animal cages in groups of six animals each with a 12 hour light and dark cycle. The animals were acclimatized to laboratory conditions for a week prior to the experiments.
In a study of the effect of sulindac derivatives on gastric lesions induced by indomethacin, a suspension of indomethacin in 1.0% carboxymethylcellulose (CMC) in water (6 mg/mL) at a dose of (30 mg/kg) body weight was administered orally to rats. Control rats were treated with the vehicle. Sulindac derivative Compound 8 was administered half an hour prior to indomethacin administration at a dose of 150 mg/kg.

hot plate nociception = assay: Analgesic activity by hot plate method; assay type: in vivo, mice; conditions: Sulindac 100 mg/kg oral; for % Inhibition 30 min / Reaction Time 30 min / % Inhibition 60 min / Reaction Time 60 min / % Inhibition 120 min / Reaction Time 120 min: Compound 8 150 mg/kg; for Reaction Time 30 min / Reaction Time 60 min / Reaction Time 120 min / Reaction Time, Pre-drug: mean ±SEM; for Reaction Time, Pre-drug: pre-drug baseline, groups Compound 8 150 mg/kg
Protocol: as §1
In an analgesic activity by hot plate method study, animals were dropped gently on a hot plate maintained at […]. Reaction time was recorded as the interval extending from the instant the animal reached the hot plate until the moment the animal licked its forefeet or jumped off. […]

[3] = DPPH free radical scavenging (antioxidant activity); conditions: 100 μg/mL compound in 3 mL 0.004% DPPH, 520 nm after 30 min; mean of three replicates ±SD
Protocol: The antioxidant activity was measured based on the scavenging activity of the stable DPPH free radical. 100 μg/mL of the twenty-five sulindac derivative compounds were added to 3 mL 0.004% DPPH solution. Methanol was added to 3 mL 0.004% DPPH solution for the control sample. Absorbance was determined at 520 nm after 30 min. Butylated hydroxytoluene (BHT) was used as a reference drug. The percent inhibition was calculated by the equation:
[formula] where At is the absorbance of the compound and A0 is the absorbance of the control.

Structure (SMILES)	MDA (malondialdehyde (MDA); drug alone, no ethanol) [nmol/g]	MDA (malondialdehyde (MDA); with 80% Ethanol 1 mL) [nmol/g]	# Dead ([1]; dose 100 mg/kg)	# Dead ([1]; dose 200 mg/kg)	# Dead ([1]; dose 400 mg/kg)	# Dead ([1]; dose 800 mg/kg)	# Dead ([1]; dose 1600 mg/kg)	# Dead ([1]; dose 2000 mg/kg)	LD50 at 24 h ([1]; in vivo, Karber method, LD50=LD100−Σ(a×b)/n) [mg/kg]	Ulcer Index [2]	% Inhibition (ulcer index) ([2]; rats given indomethacin 30 mg/kg, Compound 8 150 mg/kg, versus indomethacin alone) [%]	% Inhibition 30 min (hot plate nociception) [%]	Reaction Time 30 min (hot plate nociception) [s]	% Inhibition 60 min (hot plate nociception) [%]	Reaction Time 60 min (hot plate nociception) [s]	% Inhibition 120 min (hot plate nociception) [%]	Reaction Time 120 min (hot plate nociception) [s]	Reaction Time, Pre-drug (hot plate nociception) [s]	Scavenging Effect [3] [%]
CC1=C(CC(=O)N/N=C\c2ccc(N(C)C)cc2)c2cc(F)ccc2/C1=C\c1ccc([S+](C)[O-])cc1 (centres unmarked) [Compound 8]	1.06 ± 0.02	1.59 ± 0.06	0	0	1	3	5	9	1310	22.16 ± 1.10	40.09	15	7.66 ± 0.42	47.50	9.83 ± 0.30	67.50	11.16 ± 0.30	6.66 ± 0.33	85.10 ± 6.80
CC1=C(CC(=O)O)c2cc(F)ccc2/C1=C\c1ccc([S+](C)[O-])cc1 (centres unmarked) [Sulindac]	1.31 ± 0.04	2.28 ± 0.11								32.00 ± 3.86		41.30	10.83 ± 0.47	54.34	11.83 ± 0.47	86.95	14.33 ± 0.42	7.66 ± 0.33	
